Results from patent publication US20210290541A1, “SOLID DISPERSION OF HYDANTOIN DERIVATIVE” (Chugai Seiyaku Kabushiki Kaisha, priority 2018, published 2021).
Values after ≈ are worked out from the molar mass of the structure shown. One block for each compound: values may come before it.

Key:
Assay type in all cases: physicochemical
pKa values = assay: pKa values
Excerpt: (§1) Compound I can be produced, for example, by the method described in Example 3 (Compound 7) of WO2014/092061.
In the present invention, the “base” preferably has a pKa value greater than that of Compound I. Since the lower pKa value of Compound I is about 8, the bases that can be used in the present invention desirably have a pKa value that is preferably more than about 9, even more preferably more than about 10, and most preferably more than about 11. Here, the term pKa is used in its conventional form. That is, pKa is the negative logarithm of the ionization constant of the acid. Unless otherwise specified, pKa is assumed to be measured in distilled water at 25° C.

[1] = organic solvent solubility; conditions: for solubility: organic solvent or mixture
Description: as §1
A solvent suitable for solvent treatment may be any compound in which drugs, polymers, and bases are mutually soluble. Preferably, the solvent is also volatile and has a boiling point of 150° C. or lower. Furthermore, the solvent should have relatively low toxicity and should be removed from the solid dispersion to a level that is acceptable according to the guidelines of the International Council for Harmonization of Technical Requirements for Pharmaceuticals for Human Use (ICH). Removal of the solvent to this level may require a subsequent processing step such as tray-drying. Preferred solvents include alcohols such as methanol, ethanol, n-propanol, iso-propanol, and butanol; ketones such as acetone, methyl ethyl ketone, and methyl iso-butyl ketone; esters such as ethyl acetate and propyl acetate; and various other solvents, such as acetonitrile, methylene chloride, toluene, 1,1,1-trichloroethane, and tetrahydrofuran. Low-volatility solvents such as dimethylacetamide or dimethylsulfoxide can also be used in small amounts in mixtures with volatile solvents. A mixture of solvents such as 50% methanol and 50% acetone can also be used in the same manner as a mixture with water. Preferred solvents are ethanol, methanol, acetone, tetrahydrofuran, ethyl acetate, mixtures of these with water, and mixtures thereof. […] In particular, tetrahydrofuran and its mixed liquids can be referred to as preferred solvents.

water solubility = conditions: 37° C., pH 6 to 7
Excerpt: as §1

[2] = solubility in FaSSIF (excess amount, stirring 24 hours or more, centrifugation, HPLC)
Description: A suitable FaSSIF is, for example, an aqueous solution containing 28.7 mM potassium dihydrogen phosphate (KH2PO4), 103.3 mM KCl, 3 mM sodium taurocholate, and 0.8 mM L-α-phosphatidylcholine, and adjusted to pH 6.5 using NaOH.
Furthermore, for the purpose of evaluating the solubility of the type I crystal of the free form of Compound I in FaSSIF, an excess amount of the type I crystal of the free form of Compound I was placed in FaSSIF, and after soaking and stirring at 37° C. for 24 hours or more, this was subjected to centrifugation. […] In addition, the solubility of the type II crystal of the free form of Compound I evaluated in the same manner was 2 μg/mL.

[3] = storage stability of crystals

pKa values (pKa values): about 8
solubility ([1]; acetone/water mixture (95:5 v/v), volume ratio 95:5, read-out: solubility in a mixed solution of acetone and water): ≥ 50 mg/mL
solubility ([1]; tetrahydrofuran, room temperature, read-out: solubility in THF (tetrahydrofuran)): ≥ 80 mg/mL
solubility ([1]; tetrahydrofuran/methanol mixture (95:5 v/v), volume ratio 95:5, read-out: solubility in a mixed solution of tetrahydrofuran and methanol): ≥ 100 mg/mL
Structure (SMILES): Cc1cc(N2C(=O)NC(=O)C2(C)C)cc(C)c1CCS(=O)(=O)N1CCC2(CC1)N=C(c1ccc(OC(F)(F)F)cc1)NC2=O [Compound I, 1-(3,5-dimethyl-4-(2-((4-oxo-2-(4-(trifluoromethoxy)phenyl)-1,3,8-triazaspiro[4.5]deca-1-en-8-yl)sulfonyl)ethyl)phenyl)-5,5-dimethylimidazolidine-2,4-dione]

solubility (water solubility): < 0.001 mg/mL
pKa (pKa values; distilled water): 8
solubility ([2]; FaSSIF, 37 °C, pH 6.5, fassif, thermodynamic from solid): 0.001 mg/mL (≈ 1.57 µM)
Structure (SMILES): Cc1cc(N2C(=O)NC(=O)C2(C)C)cc(C)c1CCS(=O)(=O)N1CCC2(CC1)N=C(c1ccc(OC(F)(F)F)cc1)NC2=O

storage stability [3]: excellent storage stability
solubility in THF (tetrahydrofuran) ([1]; room temperature): ≥ 80 mg/mL
Structure (SMILES): Cc1cc(N2C(=O)NC(=O)C2(C)C)cc(C)c1CCS(=O)(=O)N1CCC2(CC1)N=C(c1ccc(OC(F)(F)F)cc1)NC2=O [type I crystal of the free form of Compound I]

solubility in FaSSIF ([2]; 37° C.): 0.002 mg/mL (≈ 3.15 µM)
Structure (SMILES): Cc1cc(N2C(=O)NC(=O)C2(C)C)cc(C)c1CCS(=O)(=O)N1CCC2(CC1)N=C(c1ccc(OC(F)(F)F)cc1)NC2=O [type II crystal of the free form of Compound I]
